Results on eight compounds are retold here after ChEMBL document CHEMBL1201862, “PubChem BioAssay data set” (2004).

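Compound exposure: 48 hours, 5 concentrations, 96-well plates. GI50 = concentration required for 50% inhibition of growth.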 Calls of active or inactive are those of the source. No stated cut-off is given here; in the data, active = GI50 up to about 1.1 µM and inactive = higher.

What all share (assay): NCI tumour cell line growth inhibition, 48 h
The subject of test [1] is NCI/ADR-RES.
Test [2] concerns NCI-H522.
In test [3] the test system is SF-539.
Test [4] deals with A549.
Test [5] relates to SK-OV-3.
Test [6] concerns SF-268.
Test [7] has as its system MDA-MB-435.
Test [8] concerns NCI-H226.
The subject of test [9] is HL-60.
The subject of test [10] is PC-3.
The test system of test [11] is EKVX.
Test [12] relates to DU-145.
For test [13], the system named is 786-0.
Test [14] concerns LOX IMVI.
In test [15] the test system is Malme-3M.
For test [16], the system named is MDA-N.
Test [17] has as its system UACC-257.
Test [18] has as its system UO-31.
For test [19], the system named is RPMI-8226.
In test [20] the test system is RXF 393.

In the case of `O=C(CNc1c(Cl)cccc1Cl)NC1C=Cc2ccc(S(=O)(=O)Nc3c(Cl)cccc3Cl)cc2C1=O` (centres undefined), the GI50 in test [1] was > 100 µM (inactive); in test [2] it was 30.5 µM (inactive); in test [3] it was > 100 µM (inactive); in [4] it was > 100 µM (inactive); in test [5], > 100 µM (inactive); in test [6], 48.3 µM (inactive). For the same compound, the GI50 in test [7] is > 100 µM (inactive); in test [8], 17.5 µM (inactive); in test [9], 75.2 µM (inactive); in [10] it was 23.7 µM (inactive); in [11], 17.7 µM (inactive); in test [12], > 100 µM (inactive). Besides, the GI50 in test [13] was > 100 µM (inactive); in test [14], 88.7 µM (inactive); in test [15] it was > 100 µM (inactive); in [16] it was > 100 µM (inactive); in test [17], > 100 µM (inactive); in [18], 26.9 µM (inactive). Moreover, the GI50 in test [19] is > 100 µM (inactive).
For `COc1cc(/C=C/c2cc(/C=C/c3ccc(O)c(OC)c3)oc(=O)c2)ccc1O`, the GI50 in test [1] is 4.38 µM (inactive); in test [2] it was 2.87 µM (inactive); in test [3], 6.79 µM (inactive); in test [4], 3.17 µM (inactive); in test [5], 9.04 µM (inactive); in test [6] it was 3.94 µM (inactive). The GI50 in [7] was 3.38 µM (inactive); in [8], 10.5 µM (inactive); in test [10] it was 3.91 µM (inactive); in test [11] it was 3.1 µM (inactive); in test [12] it was 0.553 µM (active); in test [13] it was 5.62 µM (inactive). In addition, the GI50 in test [14] was 3.71 µM (inactive); in [15], 2.66 µM (inactive); in test [16], 4.7 µM (inactive); in test [17] it was 5.25 µM (inactive); in test [18] it was 3.01 µM (inactive); in test [19], 2.3 µM (inactive).
In the case of `Clc1sc(Cl)c2c1[C@H](Br)C[C@@H]2Cl`, the GI50 was 17.7 µM (inactive) in [1]; 16.9 µM (inactive) in [2]; 15.8 µM (inactive) in test [3]; 32.9 µM (inactive) in test [4]; > 100 µM (inactive) in test [5]; 23 µM (inactive) in [6]. Moreover, the GI50 in test [20] was 26 µM (inactive); in test [7] it was 18.4 µM (inactive); in test [10] it was 40.3 µM (inactive); in [11], 35.9 µM (inactive); in [12], 33.7 µM (inactive); in test [13], 32.9 µM (inactive). For the same compound, the GI50 was 18.2 µM (inactive) in test [14]; 21.9 µM (inactive) in test [15]; 41.7 µM (inactive) in test [16]; 29.4 µM (inactive) in test [17]; 18.3 µM (inactive) in test [18]; 30.2 µM (inactive) in [19].
As for `CC1N=C(c2ccccc2)OC1=O` (centres undefined), the GI50 in [1], in test [2], in test [3], in [4], in test [5] and in test [6] was > 100 µM (inactive) each time. Further, the GI50 in test [7], in [8], in test [10], in [11], in test [12] and in [13] was > 100 µM (inactive) each time. Further, the GI50 in test [14], in test [15], in test [16], in test [17], in [18] and in [19] was > 100 µM (inactive) each time.
As to `CC(C)(C)OC(=O)n1c2ccccc2c2c(=O)nc(N3CCCCC3)sc21`, the GI50 was > 100 µM (inactive) in [1]; > 100 µM (inactive) in [2]; > 100 µM (inactive) in test [3]; > 100 µM (inactive) in [4]; > 100 µM (inactive) in [5]; 58.9 µM (inactive) in [6]. The GI50 in test [7], in test [9], in test [10], in test [11], in test [12] and in test [13] was > 100 µM (inactive) in each case. In addition, the GI50 in test [14] is > 100 µM (inactive); in test [15], > 100 µM (inactive); in test [16] it was > 100 µM (inactive); in test [17] it was > 100 µM (inactive); in test [18], 22.3 µM (inactive); in test [19], > 100 µM (inactive).
In the case of `COc1ccc2c(c1)c1c(n2CCN2CCOCC2)-c2cccc(OC)c2CC1`, the GI50 in test [1] is 43.6 µM (inactive); in [2], 20.2 µM (inactive); in test [3], 33.3 µM (inactive); in test [4], 26.2 µM (inactive); in [5] it was > 100 µM (inactive); in test [6], > 100 µM (inactive). Moreover, the GI50 was 24.2 µM (inactive) in [20]; 44 µM (inactive) in test [7]; 24.4 µM (inactive) in test [8]; 23.7 µM (inactive) in [10]; 62.4 µM (inactive) in [12]; 30.4 µM (inactive) in test [13]. The GI50 in test [15] is 16.9 µM (inactive); in test [16] it was 33.4 µM (inactive); in test [17] it was 58.5 µM (inactive); in test [18], 18.6 µM (inactive); in test [19], 16.9 µM (inactive).
As for `COc1ccc(/C=C2\S/C(=N/Nc3nc(-c4ccccc4)cs3)NC2=O)cc1OC`, the GI50 in test [1] was 20.7 µM (inactive); in test [2], 18.5 µM (inactive); in test [3] it was 24.3 µM (inactive); in [4], 20.9 µM (inactive); in [5] it was 21.5 µM (inactive); in [6] it was 29 µM (inactive). The GI50 in test [20] was 4.5 µM (inactive); in test [7], 25.7 µM (inactive); in [9], 6 µM (inactive); in [10] it was 17.4 µM (inactive); in [11] it was 22.6 µM (inactive); in test [12] it was 34 µM (inactive). Besides, the GI50 in test [13] was 28.4 µM (inactive); in test [14], 23.3 µM (inactive); in [16] it was 15.4 µM (inactive); in test [17], 33.3 µM (inactive); in test [18], 15.6 µM (inactive).
Turning to `CCCCOC(=O)Nc1ccc(S(=O)(=O)Nc2c(Cl)cccc2Cl)cc1`, the GI50 in test [1] was 24.3 µM (inactive); in test [2], 42.1 µM (inactive); in test [3] it was 29.4 µM (inactive); in [4], 37.4 µM (inactive); in [5] it was 25.2 µM (inactive); in test [6], 36.6 µM (inactive). Moreover, the GI50 in [20] was 36.9 µM (inactive); in [7], 26.3 µM (inactive); in [9] it was 22.3 µM (inactive); in test [10] it was 43.3 µM (inactive); in [11] it was 26.6 µM (inactive); in test [12], 38.9 µM (inactive). Moreover, the GI50 was 31.3 µM (inactive) in test [13]; 30.1 µM (inactive) in [14]; 26.9 µM (inactive) in test [15]; 27.2 µM (inactive) in test [16]; 35.6 µM (inactive) in [17]; 25.6 µM (inactive) in [18]. The GI50 in test [19] was 17.1 µM (inactive).
